From ChEMBL document CHEMBL4507268 (2021)

How the values were obtained:
Conditions in all cases: Compound concentration 1.0 uM
[1] = molecular target: Cyclin-dependent kinase 14/Cyclin-Y (Homo sapiens) (UniProt O94921+Q8ND76)
[2] = molecular target: Casein kinase I isoform gamma-1 (Homo sapiens) (UniProt Q9HCP0)
[3] = molecular target: Focal adhesion kinase 1 (Homo sapiens) (UniProt Q05397)
[4] = molecular target: T1, Rhodopsin kinase GRK1 (Homo sapiens) (UniProt Q15835)
T1 sequence (whole entry): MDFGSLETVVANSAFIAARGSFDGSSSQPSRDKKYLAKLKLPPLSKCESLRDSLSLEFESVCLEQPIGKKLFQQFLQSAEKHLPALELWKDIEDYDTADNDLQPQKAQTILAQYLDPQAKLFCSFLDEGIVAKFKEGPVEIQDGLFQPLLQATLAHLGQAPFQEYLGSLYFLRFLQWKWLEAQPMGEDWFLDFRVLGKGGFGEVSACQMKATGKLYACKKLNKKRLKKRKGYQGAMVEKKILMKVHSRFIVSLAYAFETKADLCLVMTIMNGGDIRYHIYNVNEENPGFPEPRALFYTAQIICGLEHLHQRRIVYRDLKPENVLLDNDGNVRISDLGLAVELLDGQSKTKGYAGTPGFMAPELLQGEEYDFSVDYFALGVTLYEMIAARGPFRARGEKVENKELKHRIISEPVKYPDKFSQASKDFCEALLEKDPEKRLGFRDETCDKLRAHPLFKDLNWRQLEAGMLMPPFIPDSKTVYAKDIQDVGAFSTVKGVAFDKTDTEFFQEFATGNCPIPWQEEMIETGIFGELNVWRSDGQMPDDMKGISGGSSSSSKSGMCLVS

[5] = molecular target: T2, Tyrosine-protein kinase ITK/TSK (Homo sapiens) (UniProt Q08881)
T2 sequence (whole entry): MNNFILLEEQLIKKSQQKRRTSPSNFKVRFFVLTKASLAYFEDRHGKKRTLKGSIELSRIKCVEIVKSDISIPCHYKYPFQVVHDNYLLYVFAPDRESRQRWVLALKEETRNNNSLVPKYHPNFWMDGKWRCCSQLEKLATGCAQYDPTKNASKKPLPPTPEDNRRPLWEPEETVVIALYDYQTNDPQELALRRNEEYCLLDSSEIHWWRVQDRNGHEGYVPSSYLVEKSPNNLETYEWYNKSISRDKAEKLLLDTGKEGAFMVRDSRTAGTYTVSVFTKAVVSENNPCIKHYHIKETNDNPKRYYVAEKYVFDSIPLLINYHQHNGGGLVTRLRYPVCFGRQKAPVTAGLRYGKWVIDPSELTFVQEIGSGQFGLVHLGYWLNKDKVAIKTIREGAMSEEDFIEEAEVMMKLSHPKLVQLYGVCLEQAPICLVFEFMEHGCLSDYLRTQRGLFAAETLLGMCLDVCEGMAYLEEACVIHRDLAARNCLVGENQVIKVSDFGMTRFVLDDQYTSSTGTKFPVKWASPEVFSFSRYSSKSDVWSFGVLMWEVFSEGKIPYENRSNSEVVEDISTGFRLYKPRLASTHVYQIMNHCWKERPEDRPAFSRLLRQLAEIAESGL

[6] = molecular target: T3, Dual specificity mitogen-activated protein kinase kinase 7 (Homo sapiens) (UniProt O14733)
T3 sequence (whole entry): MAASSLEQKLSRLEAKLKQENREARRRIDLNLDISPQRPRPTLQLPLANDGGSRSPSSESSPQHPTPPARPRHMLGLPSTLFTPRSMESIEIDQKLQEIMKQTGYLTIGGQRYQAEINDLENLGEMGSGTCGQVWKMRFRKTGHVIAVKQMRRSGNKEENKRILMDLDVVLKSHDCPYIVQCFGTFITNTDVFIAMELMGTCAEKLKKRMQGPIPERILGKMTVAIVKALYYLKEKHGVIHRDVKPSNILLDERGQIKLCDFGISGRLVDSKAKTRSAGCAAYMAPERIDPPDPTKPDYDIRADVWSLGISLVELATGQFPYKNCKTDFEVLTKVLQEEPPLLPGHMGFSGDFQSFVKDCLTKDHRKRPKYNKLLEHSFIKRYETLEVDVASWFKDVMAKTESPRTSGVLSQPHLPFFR

[7] = molecular target: MAP kinase-interacting serine/threonine-protein kinase 2 (Homo sapiens) (UniProt Q9HBH9)
[8] = molecular target: Serine/threonine-protein kinase Nek6 (Homo sapiens) (UniProt Q9HC98)
[9] = molecular target: Serine/threonine-protein kinase PAK 2 (Homo sapiens) (UniProt Q13177)
[10] = molecular target: [Pyruvate dehydrogenase (acetyl-transferring)] kinase isozyme 4, mitochondrial (Homo sapiens) (UniProt Q16654)
[11] = molecular target: Serine/threonine-protein kinase pim-2 (Homo sapiens) (UniProt Q9P1W9)
[12] = molecular target: Protein kinase C beta type (Homo sapiens) (UniProt P05771)
[13] = molecular target: T4, cGMP-dependent protein kinase 1 (Homo sapiens) (UniProt Q13976)
T4 sequence (whole entry): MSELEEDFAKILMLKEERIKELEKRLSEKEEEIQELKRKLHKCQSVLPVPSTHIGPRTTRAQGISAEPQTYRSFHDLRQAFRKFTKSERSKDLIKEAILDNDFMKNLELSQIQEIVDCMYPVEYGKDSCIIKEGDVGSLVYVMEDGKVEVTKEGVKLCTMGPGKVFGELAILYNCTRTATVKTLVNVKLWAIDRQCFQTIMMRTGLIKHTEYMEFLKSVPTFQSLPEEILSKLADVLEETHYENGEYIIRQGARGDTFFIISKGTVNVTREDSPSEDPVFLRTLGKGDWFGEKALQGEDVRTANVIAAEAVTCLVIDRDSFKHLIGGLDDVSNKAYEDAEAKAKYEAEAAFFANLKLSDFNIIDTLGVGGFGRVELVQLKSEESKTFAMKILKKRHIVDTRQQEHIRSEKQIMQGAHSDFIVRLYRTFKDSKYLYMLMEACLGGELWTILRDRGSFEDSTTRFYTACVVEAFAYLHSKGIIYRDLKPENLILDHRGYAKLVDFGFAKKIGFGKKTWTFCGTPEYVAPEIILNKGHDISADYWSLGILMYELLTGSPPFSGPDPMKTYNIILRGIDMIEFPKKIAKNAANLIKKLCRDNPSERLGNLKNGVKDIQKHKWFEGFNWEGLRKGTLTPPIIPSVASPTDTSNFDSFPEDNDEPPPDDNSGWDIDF

[14] = molecular target: PI3K p110 beta/p85 alpha (Homo sapiens) (UniProt P27986+P42338)

Measured: % residual kinase activity

Sequence of MAP kinase-interacting serine/threonine-protein kinase 2 (Homo sapiens) (Q9HBH9 whole entry, looked up): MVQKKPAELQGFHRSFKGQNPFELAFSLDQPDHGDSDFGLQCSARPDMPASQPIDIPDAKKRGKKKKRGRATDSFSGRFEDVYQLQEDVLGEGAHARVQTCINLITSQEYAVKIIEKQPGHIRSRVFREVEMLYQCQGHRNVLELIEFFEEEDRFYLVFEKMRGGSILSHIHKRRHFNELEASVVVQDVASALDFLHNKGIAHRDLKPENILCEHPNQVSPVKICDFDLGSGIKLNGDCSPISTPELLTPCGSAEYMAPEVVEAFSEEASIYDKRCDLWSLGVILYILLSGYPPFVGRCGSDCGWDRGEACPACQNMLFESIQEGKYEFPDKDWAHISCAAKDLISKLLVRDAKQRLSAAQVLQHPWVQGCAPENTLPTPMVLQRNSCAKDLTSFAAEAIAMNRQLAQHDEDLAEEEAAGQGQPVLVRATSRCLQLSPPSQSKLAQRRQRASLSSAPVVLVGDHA
Sequence of Serine/threonine-protein kinase Nek6 (Homo sapiens) (Q9HC98 whole entry): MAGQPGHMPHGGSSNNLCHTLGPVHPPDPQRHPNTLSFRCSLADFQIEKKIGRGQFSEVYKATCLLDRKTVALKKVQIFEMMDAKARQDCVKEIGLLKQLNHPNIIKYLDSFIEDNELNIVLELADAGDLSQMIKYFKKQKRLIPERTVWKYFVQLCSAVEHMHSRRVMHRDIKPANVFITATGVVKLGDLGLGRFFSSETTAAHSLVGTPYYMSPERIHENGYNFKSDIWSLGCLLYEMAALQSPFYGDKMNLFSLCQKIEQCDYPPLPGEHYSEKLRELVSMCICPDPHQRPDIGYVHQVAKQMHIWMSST
Sequence of PI3K p110 beta/p85 alpha (Homo sapiens) (P27986 2-724 limits assumed): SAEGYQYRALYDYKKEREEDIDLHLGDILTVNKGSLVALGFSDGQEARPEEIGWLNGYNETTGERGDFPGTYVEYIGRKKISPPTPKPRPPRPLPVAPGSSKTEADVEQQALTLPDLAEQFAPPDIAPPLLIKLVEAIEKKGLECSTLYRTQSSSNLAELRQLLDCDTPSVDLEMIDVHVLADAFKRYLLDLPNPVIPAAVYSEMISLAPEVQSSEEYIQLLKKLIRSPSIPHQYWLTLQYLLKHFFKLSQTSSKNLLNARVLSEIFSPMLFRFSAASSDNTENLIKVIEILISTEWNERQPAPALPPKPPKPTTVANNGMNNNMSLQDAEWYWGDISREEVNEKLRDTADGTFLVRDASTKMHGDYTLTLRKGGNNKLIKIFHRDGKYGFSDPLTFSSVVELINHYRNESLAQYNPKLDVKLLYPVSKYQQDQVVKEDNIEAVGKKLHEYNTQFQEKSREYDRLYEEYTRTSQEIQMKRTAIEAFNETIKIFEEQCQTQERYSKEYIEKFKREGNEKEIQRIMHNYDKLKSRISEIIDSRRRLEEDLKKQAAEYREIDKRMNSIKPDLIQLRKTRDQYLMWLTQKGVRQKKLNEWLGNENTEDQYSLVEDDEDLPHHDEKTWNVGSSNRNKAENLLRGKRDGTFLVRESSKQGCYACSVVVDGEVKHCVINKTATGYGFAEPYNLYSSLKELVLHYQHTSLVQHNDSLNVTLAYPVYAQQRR
Sequence of PI3K p110 beta/p85 alpha (Homo sapiens) (P42338 whole entry partner): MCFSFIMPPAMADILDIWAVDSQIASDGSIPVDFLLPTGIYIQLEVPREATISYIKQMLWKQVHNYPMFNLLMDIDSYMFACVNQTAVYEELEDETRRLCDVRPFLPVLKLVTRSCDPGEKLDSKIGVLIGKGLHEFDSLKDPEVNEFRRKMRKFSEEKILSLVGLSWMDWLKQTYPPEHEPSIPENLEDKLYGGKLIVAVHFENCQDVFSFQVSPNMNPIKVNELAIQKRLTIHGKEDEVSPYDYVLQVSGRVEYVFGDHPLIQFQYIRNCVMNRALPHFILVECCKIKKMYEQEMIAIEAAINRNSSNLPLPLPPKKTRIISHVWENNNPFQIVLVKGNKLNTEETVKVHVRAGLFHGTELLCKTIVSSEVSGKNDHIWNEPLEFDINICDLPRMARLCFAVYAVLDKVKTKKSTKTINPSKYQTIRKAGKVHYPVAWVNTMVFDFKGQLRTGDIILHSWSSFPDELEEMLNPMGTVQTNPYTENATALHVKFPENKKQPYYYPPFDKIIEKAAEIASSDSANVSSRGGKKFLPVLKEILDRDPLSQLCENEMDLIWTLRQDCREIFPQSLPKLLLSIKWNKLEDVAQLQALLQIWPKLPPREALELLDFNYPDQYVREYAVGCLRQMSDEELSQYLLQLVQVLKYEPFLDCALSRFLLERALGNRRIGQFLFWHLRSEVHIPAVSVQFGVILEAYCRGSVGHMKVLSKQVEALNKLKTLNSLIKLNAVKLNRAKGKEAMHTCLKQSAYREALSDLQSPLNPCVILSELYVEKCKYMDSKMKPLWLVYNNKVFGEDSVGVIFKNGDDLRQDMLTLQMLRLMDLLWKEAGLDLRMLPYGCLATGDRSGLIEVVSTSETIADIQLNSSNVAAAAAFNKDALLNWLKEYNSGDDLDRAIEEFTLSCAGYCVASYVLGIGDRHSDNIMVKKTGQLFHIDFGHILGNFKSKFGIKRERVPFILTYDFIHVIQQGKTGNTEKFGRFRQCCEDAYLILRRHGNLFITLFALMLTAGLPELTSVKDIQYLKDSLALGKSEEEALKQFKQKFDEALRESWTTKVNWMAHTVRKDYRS
Sequence of Focal adhesion kinase 1 (Homo sapiens) (Q05397 2-1052 limits assumed): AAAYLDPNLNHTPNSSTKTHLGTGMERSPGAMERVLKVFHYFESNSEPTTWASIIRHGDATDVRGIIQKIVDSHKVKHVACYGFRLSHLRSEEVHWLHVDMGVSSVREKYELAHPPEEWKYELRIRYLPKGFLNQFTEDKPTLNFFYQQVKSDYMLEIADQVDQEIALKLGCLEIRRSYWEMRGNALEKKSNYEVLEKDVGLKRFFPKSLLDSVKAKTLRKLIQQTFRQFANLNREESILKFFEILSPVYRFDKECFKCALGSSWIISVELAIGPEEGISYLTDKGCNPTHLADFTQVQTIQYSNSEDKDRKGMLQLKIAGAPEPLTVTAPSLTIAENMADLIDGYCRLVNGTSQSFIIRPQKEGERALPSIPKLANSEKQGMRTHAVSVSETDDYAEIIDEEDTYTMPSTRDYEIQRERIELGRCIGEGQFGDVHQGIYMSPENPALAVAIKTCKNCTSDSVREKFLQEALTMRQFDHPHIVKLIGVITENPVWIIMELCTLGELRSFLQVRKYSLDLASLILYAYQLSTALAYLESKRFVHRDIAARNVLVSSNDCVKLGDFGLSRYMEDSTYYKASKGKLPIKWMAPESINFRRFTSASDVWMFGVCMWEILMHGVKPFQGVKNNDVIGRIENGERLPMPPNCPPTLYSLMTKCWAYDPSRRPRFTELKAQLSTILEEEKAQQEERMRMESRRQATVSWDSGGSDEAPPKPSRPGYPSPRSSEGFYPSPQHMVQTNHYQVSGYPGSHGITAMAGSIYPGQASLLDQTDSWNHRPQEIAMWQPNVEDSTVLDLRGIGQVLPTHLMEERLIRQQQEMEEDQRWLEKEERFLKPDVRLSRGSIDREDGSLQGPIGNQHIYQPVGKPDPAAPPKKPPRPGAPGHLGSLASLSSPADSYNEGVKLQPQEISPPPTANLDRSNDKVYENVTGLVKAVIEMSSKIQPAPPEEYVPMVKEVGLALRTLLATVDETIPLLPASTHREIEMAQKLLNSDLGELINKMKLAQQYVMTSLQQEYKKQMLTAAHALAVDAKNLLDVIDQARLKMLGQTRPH
Sequence of Protein kinase C beta type (Homo sapiens) (P05771 2-671 limits assumed): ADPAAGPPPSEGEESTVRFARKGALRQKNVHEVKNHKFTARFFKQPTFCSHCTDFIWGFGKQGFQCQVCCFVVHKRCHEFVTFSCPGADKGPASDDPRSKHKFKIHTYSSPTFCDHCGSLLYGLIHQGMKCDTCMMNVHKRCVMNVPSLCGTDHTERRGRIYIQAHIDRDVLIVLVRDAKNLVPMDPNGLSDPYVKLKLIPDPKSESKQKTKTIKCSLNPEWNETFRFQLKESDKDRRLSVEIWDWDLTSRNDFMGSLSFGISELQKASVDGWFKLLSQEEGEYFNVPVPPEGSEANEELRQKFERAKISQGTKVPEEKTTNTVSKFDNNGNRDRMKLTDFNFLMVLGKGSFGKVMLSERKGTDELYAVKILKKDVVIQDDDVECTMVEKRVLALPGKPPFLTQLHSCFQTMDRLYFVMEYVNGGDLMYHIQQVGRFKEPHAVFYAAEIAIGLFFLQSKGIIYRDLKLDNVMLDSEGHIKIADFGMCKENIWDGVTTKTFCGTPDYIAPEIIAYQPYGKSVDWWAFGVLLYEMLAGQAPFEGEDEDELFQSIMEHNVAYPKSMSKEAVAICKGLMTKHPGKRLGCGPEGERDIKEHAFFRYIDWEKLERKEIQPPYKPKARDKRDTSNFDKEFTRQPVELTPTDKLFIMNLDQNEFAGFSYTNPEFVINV
Sequence of [Pyruvate dehydrogenase (acetyl-transferring)] kinase isozyme 4, mitochondrial (Homo sapiens) (Q16654 whole entry, looked up): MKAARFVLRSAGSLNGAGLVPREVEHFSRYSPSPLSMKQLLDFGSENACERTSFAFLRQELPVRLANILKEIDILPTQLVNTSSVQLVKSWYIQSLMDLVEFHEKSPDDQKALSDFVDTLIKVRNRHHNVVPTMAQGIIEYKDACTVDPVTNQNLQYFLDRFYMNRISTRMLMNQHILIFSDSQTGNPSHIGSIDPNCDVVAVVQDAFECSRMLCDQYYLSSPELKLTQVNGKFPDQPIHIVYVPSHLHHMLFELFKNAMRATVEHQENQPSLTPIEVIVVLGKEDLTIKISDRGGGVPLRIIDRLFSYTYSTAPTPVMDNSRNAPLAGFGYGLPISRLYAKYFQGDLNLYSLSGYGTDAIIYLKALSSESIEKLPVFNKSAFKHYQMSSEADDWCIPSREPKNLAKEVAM
Sequence of Serine/threonine-protein kinase pim-2 (Homo sapiens) (Q9P1W9 whole entry, looked up): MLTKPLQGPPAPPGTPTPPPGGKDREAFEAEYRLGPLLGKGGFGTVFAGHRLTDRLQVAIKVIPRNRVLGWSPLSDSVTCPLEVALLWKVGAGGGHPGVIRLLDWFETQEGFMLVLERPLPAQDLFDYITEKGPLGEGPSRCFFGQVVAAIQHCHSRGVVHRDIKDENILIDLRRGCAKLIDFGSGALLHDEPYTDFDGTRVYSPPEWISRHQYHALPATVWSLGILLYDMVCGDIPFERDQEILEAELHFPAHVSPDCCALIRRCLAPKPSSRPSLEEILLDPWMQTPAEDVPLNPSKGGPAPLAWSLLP

CN1CCN(c2cnc3c(C4CCN(C(=O)c5ccc(OC(F)(F)F)cc5N)CC4)ncnc3c2)CC1 [BAY-885]
inactive: [1] 117% | [2] 105% | [3] 101% | [4] 117% | [5] 105% | [6] 106% | [7] 99% | [8] 125% | [9] 108% | [10] 104% | [11] 110% | [12] 110% | [13] 122% | [14] 98%
